Measurements reported in EPA's ToxValDB 9.5 (doi:10.2903/j.efsa.2018.5405).
≈ marks a conversion by molar mass, not a printed value.

What was measured:
Oncorhynchus mykiss = details: for LC50: acute, duration: 96 hours, mortality
Tagia sp. = details: chronic/long-term; reproduction
Anas platyrhynchos = details: reproductive
Apis mellifera = details: acute, mortality
Bibionidae = details: chronic/long-term; duration: 28 days; development
Colinus virginianus = details: acute; oral; mortality
Hypoaspis aculeifer = details: chronic/long-term; reproduction
Neomysis kadiakensis = details: chronic/long-term; duration: 28 days; development
Typhlodromus pyri = experiment: LR50; higher = less toxic; details: acute; mortality

O=C(O)c1ccc(F)c(Oc2ccccc2)c1 [4-Fluoro-3-phenoxybenzoic acid]
LC50 (Oncorhynchus mykiss): 4.06 µg/mL (≈ 17.5 µM)
NOEC (Tagia sp.): 2.6 mg/kg

CC1(C)C(C=C(Cl)Cl)[C@@H]1C(=O)O[C@@H](C#N)c1ccc(F)c(Oc2ccccc2)c1 (stereo partly drawn) [beta-Cyfluthrin]
NOAEL (Anas platyrhynchos): 2.6 mg/kg-day
LD50 (Apis mellifera; dermal): 0.012 µg/piece
LD50 (Apis mellifera; oral, unspecified): 0.05 µg/piece
NOEC (Bibionidae): 0.0057 µg/L
LD50 (Colinus virginianus): > 58.6 mg/kg-day
NOEC (Hypoaspis aculeifer): 0.485 mg/kg
NOEC (Neomysis kadiakensis): 0.00041 µg/L
LC50 (Oncorhynchus mykiss): 6.8e-05 µg/mL (≈ 0.000157 µM)
NOEC (Oncorhynchus mykiss; chronic/long-term, duration: 58 days, growth): 0.0042 µg/L
LD50 (Rattus norvegicus; acute, oral, mortality): > 8.79 mg/kg-day
NOAEL (Rattus norvegicus; chronic): 1.39 mg/kg-day
NOAEL (Rattus norvegicus; subchronic, duration: 13 weeks, inhalation, behavior): 0.02 mg/kg-day
LR50 (Typhlodromus pyri): 0.0025 g/ha
